Reference: ChEMBL document CHEMBL1134698 (Bioorg Med Chem Lett, 2001)

Legend:
[1] = target: Monoamine transporters; serotonin & dopamine (Homo sapiens) (UniProt P31645+Q01959); assay: Selectivity was measured as SERT/DAT; type: protein assay
[2] = target: Norepinephrine transporter (Rattus norvegicus, UniProt Q9WTR4); assay: Binding affinity was evaluated by measuring inhibiting the binding of [3H]nisoxetine to Norepinephrine transporter in rat brain tissue; type: tissue-based
[3] = species: Rattus norvegicus; assay: Inhibition of [3H]dopamine reuptake in rat […]; type: functional
[4] = target: Sodium-dependent serotonin transporter (Rattus norvegicus, UniProt P31652); assay: Binding affinity was evaluated by measuring inhibiting the binding of [3H]citalopram to Serotonin transporter in rat brain tissue; type: tissue-based
[5] = target: Sodium-dependent dopamine transporter (Rattus norvegicus, UniProt P23977); assay: Binding affinity was evaluated by measuring the inhibition of [3H]WIN-35428 binding to Dopamine transporter in rat brain tissue; type: tissue-based
Sequence of Sodium-dependent dopamine transporter (P23977 whole entry): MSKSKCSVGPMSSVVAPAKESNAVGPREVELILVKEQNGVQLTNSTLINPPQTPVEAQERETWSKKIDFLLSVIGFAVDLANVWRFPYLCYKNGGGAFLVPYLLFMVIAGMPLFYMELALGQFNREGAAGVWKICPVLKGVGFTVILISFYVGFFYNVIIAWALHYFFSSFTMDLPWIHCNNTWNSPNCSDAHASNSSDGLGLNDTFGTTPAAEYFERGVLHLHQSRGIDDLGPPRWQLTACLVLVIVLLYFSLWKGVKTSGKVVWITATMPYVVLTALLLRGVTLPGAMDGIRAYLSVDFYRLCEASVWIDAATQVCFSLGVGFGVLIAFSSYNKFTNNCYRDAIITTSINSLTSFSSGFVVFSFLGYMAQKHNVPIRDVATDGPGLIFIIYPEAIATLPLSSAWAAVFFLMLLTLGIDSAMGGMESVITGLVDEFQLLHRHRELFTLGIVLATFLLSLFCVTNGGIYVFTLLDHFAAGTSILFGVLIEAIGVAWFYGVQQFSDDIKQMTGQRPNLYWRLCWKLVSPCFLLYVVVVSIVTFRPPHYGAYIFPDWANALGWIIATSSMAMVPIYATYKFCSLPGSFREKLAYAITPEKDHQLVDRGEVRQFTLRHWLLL

Sequence of Norepinephrine transporter (Q9WTR4 whole entry): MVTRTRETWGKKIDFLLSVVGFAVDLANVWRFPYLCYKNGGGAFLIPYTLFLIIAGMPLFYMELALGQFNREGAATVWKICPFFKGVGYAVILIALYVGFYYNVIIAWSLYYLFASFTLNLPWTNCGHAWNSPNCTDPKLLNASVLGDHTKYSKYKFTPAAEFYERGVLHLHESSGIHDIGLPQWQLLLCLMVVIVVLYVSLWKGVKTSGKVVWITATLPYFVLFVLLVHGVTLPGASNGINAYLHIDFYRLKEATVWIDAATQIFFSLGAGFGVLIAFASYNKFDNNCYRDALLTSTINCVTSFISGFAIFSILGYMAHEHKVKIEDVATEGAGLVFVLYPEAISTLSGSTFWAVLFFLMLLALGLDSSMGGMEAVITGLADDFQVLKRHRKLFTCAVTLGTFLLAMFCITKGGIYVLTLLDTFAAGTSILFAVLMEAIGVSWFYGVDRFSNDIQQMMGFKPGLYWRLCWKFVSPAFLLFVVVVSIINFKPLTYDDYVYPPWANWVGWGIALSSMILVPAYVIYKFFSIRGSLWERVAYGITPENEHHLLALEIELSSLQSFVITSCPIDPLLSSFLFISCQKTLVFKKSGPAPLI
Sequence of Sodium-dependent serotonin transporter (P31652 whole entry): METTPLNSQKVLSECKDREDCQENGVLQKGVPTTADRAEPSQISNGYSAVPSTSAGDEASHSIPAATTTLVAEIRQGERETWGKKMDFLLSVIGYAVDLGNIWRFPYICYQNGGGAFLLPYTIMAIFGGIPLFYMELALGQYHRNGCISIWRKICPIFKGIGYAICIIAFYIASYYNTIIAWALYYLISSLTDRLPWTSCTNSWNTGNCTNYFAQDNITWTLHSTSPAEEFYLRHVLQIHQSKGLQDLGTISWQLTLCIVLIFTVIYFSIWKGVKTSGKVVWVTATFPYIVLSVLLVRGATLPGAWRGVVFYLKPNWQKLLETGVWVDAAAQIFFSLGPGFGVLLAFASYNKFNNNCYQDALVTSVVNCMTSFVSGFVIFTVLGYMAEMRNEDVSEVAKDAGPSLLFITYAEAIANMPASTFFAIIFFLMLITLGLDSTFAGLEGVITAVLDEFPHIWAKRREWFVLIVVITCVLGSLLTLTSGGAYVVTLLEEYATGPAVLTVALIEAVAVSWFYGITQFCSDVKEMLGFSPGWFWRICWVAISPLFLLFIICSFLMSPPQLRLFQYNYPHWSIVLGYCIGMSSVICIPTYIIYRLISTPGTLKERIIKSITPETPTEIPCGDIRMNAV
Sequence of Monoamine transporters; serotonin & dopamine (Homo sapiens) (P31645 whole entry, looked up): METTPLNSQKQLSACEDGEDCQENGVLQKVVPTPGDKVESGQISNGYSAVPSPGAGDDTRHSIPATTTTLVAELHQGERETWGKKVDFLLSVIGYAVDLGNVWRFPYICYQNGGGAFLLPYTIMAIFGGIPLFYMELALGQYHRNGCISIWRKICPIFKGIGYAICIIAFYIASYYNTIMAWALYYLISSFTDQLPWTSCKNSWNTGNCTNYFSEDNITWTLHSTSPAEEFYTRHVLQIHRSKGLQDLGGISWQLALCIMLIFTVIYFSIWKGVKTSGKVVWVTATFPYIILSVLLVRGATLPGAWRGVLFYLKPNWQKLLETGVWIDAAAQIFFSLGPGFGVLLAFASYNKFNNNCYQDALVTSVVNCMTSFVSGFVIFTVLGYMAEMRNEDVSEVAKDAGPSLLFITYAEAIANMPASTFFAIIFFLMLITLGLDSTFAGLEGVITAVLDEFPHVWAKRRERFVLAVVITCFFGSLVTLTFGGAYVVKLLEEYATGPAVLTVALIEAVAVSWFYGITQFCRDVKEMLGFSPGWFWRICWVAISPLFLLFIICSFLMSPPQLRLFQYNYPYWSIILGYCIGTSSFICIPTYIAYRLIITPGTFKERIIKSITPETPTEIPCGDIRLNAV
Sequence of Monoamine transporters; serotonin & dopamine (Homo sapiens) (Q01959 whole entry, looked up): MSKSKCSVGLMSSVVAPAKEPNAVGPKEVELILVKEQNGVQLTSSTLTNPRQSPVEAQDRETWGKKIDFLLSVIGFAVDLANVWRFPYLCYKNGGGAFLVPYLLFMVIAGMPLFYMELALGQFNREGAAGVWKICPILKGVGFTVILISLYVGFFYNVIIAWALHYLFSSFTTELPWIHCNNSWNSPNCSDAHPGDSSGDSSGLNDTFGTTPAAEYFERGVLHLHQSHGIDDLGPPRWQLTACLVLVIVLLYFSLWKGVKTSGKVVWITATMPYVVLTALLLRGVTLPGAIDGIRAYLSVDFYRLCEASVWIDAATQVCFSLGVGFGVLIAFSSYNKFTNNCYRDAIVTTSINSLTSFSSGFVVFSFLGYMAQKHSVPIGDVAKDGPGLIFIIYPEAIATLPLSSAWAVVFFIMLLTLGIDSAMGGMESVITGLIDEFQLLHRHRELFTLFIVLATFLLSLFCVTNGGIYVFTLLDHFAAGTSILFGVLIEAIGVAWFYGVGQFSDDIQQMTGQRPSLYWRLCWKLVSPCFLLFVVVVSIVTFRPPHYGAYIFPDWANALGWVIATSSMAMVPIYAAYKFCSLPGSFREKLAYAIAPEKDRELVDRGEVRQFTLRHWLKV

Structure (SMILES) | Selectivity [1] | IC50 [2] [µM] | IC50 [3] [nM] | IC50 [4] [nM] | IC50 [5] [nM] | IC50 ([3]; Rattus norvegicus) [nM]
Fc1ccc(CNC2CCC(C(c3ccccc3)c3ccccc3)NC2)cc1 (cis isomer) [listing 1 of 2 here] | 93.7 |  |  |  |  | 
Fc1ccc(CNC2CCC(C(c3ccccc3)c3ccccc3)NC2)cc1 (cis isomer) [listing 2 of 2 here] |  | 1.35 | 28.9 | 2810 |  | 
Fc1ccc(CN2CCC(CNCC(c3ccccc3)c3ccccc3)CC2)cc1 | 6.9 |  |  |  |  | 
Fc1ccc(CNC2CCC(C(c3ccccc3)c3ccccc3)NC2)cc1 (stereo in doubt) [listing 1 of 2 here] |  | 4.47 | 106 | 1330 | 21.2 | 
COC(=O)[C@@H]1C2CC[C@@H](C[C@@H]1OC(=O)c1ccccc1)N2C (single isomer, unassigned) [COCAINE] |  |  |  |  |  | 191
O=C(NC1CCC(C(c2ccccc2)c2ccccc2)NC1)c1ccc(F)cc1 (racemic) | 71.4 | 5.61 |  | 6210 | 87 | 
Fc1ccc(CNC2CCC(C(c3ccccc3)c3ccccc3)NC2)cc1 (stereo in doubt) [listing 2 of 2 here] | 6.28 |  |  |  |  | 
